The experiment concerns the target Mitogen-activated protein kinase kinase kinase 2 (Homo sapiens) + Dual specificity mitogen-activated protein kinase kinase 5 (Homo sapiens) (UniProt Q9Y2U5+Q13163). In words: MEKK2 PB1-MEK5 interaction blockers – biochemical, bead multiplex flow cytometry, wildtype, dose response (AID 1897). Particulars: MEK5-MEKK2 PB1 binding; for Ki: measured here: Ki from binding competition. A general note: A flow cytometer gives signals particle by particle.

Results on 66 compounds are retold here after PubChem BioAssay AID1897 (NMMLSC, 2009).

As usually defined, the EC50 is the concentration giving half of the maximal effect. Broadly, the Ki is a dissociation constant, usually derived from enzyme kinetics or from competition with a known ligand.

Each structure is given as a SMILES string. Activity calls are given as the source filed them. How the calls were made is not given here.

Chain of Mitogen-activated protein kinase kinase kinase 2 (Homo sapiens) + Dual specificity mitogen-activated protein kinase kinase 5 (Homo sapiens) (Q13163 whole entry, looked up): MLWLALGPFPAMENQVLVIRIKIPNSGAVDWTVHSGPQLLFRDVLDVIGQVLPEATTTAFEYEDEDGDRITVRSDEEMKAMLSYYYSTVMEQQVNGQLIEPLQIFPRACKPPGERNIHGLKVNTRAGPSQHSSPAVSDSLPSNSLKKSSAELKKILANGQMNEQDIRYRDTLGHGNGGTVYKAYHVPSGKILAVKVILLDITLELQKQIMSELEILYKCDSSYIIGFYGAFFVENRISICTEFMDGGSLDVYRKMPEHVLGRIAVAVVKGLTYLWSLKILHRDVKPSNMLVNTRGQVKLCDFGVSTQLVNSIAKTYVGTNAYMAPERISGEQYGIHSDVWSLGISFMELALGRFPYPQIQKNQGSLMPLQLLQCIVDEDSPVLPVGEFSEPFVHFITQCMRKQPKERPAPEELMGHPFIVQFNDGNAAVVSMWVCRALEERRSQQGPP
Chain of Mitogen-activated protein kinase kinase kinase 2 (Homo sapiens) + Dual specificity mitogen-activated protein kinase kinase 5 (Homo sapiens) (Q9Y2U5 whole entry, looked up): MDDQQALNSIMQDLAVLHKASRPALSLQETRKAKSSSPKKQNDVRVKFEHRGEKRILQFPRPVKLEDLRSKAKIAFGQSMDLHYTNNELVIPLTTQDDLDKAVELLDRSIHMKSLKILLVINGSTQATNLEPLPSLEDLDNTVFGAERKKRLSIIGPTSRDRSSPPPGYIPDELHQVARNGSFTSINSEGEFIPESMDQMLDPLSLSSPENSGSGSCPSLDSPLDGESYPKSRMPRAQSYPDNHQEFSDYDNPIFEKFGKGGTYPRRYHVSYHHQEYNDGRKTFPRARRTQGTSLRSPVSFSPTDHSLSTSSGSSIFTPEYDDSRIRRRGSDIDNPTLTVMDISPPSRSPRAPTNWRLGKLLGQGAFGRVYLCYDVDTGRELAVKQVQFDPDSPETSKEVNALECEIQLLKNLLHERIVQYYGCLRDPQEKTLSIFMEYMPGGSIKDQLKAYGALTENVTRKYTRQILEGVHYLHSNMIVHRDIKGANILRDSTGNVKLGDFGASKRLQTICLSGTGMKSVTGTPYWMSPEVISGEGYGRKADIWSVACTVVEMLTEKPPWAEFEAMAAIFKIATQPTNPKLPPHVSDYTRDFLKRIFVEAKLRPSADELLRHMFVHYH

Turning to `CCC(/C=C1\Sc2ccc(OC)cc2N1CC)=C\c1sc2ccc(OC)cc2[n+]1CCCS(=O)(=O)[O-]`, the EC50 is 4.49 µM and the Ki was 4.01 µM.

Take `C#CCOCCOCCOCCNc1nc(N2CCN(C(=O)[C@H]([C@@H](C)CC)n3cc([C@@H](N)CO)nn3)CC2)nc(N2CCN(C(=O)[C@H](Cc3cc4ccccc4[nH]3)n3cc([C@@H](N)Cc4ccc(O)cc4)nn3)CC2)n1`: the EC50 is 0.52 µM.

Consider `CCN1CCN(CCNC(=O)c2ccc(/C=C3/Sc4ccccc4N(Cc4cccc(Cl)c4)C3=O)cc2)CC1`, for which the concentration giving a half-maximal response (EC50) is 3.78 µM.

For the compound `COc1ccc(Cn2cc3c(-c4ccc(F)cc4)nnc-3c3cc(OC)c(OC)cc32)cc1`, the EC50 was 1.15 µM.

For `COc1ccc(CNC[C@@H](CCCCN(C)Cc2ccc(OC)cc2)N2C[C@H](c3ccccc3)N(CCc3ccc(Cl)c(Cl)c3)C(=O)C2=O)cc1`, the EC50 was 1.48 µM.

For the compound `CC(C)N=c1cc2n(-c3ccc(Cl)cc3)c3ccccc3nc-2cc1Nc1ccc(Cl)cc1`, the EC50 was > 30 µM (inactive).

Turning to `CCN(CC)CCOC(=O)c1ccc(N/C=C(/C#N)c2nc(-c3cccc(OC)c3)cs2)cc1`, the EC50 was > 30 µM (inactive).

As to `CN(C)CCCn1c(SCC(=O)Nc2nc(-c3cccc(Br)c3)cs2)nc2ccccc2c1=O`, the EC50 was > 30 µM (inactive).

In the case of `Cc1sc(NC(=O)c2ccccc2)c(C(c2ccccn2)N2CCN(CCO)CC2)c1C` (stereo not given), the EC50 is > 30 µM (inactive).

As for `O=C(c1cc(COc2c(F)cccc2F)on1)N1C[C@H]2CC[C@H]1C2`, the EC50 is > 30 µM (inactive).

On to `CCN(CC)CCOC(=O)c1ccc(N/C=C(/C#N)c2nc(-c3cc4ccccc4oc3=O)cs2)cc1`, for which the EC50 was 4.88 µM and the Ki came out at 4.36 µM.

In the case of `C#CCOCCOCCOCCNc1nc(N2CCN(C(=O)[C@H]([C@@H](C)CC)n3cc([C@@H](N)CO)nn3)CC2)nc(N2CCN(C(=O)[C@H](Cc3cc4ccccc4[nH]3)n3cc([C@@H](N)C(C)CC)nn3)CC2)n1` (stereo not given in full), the EC50 was > 30 µM (inactive).

With `CCN(Cc1ccccc1)S(=O)(=O)c1ccc(C(=O)N(CCCN(C)C)c2nc3ccc(F)cc3s2)cc1`, the EC50 is 5.81 µM.

Regarding `CCOC(=O)C1=C(c2ccccc2)NC(N)=NC1c1ccc(OCc2ccc(C(=O)OC)cc2)cc1` (stereo not given), the EC50 is > 30 µM (inactive).

Turning to `O=C(CCCC(=O)N(CC(=O)NC1CCCC1)C1CCCC1)Nc1ccccn1`, the EC50 was > 30 µM (inactive).

`O=C(OCC1O[C@@H](OC(=O)c2cc(O)c(O)c(O)c2)[C@@H](OC(=O)c2cc(O)c(O)c(O)c2)[C@@H](OC(=O)c2cc(O)c(O)c(O)c2)[C@@H]1OC(=O)c1cc(O)c(O)c(O)c1)c1cc(O)c(O)c(O)c1` (stereo not given in full): the EC50 is > 30 µM (inactive).

`CCCCCc1cc(=O)oc2c(C(CCN3CCCC(C)C3)c3ccc(OC)cc3)c(OC)cc(OC)c12` (stereo not given): the EC50 was 9.57 µM.

In the case of `COc1ccc(-n2nc3c(N)n[nH]c3cc2=O)cc1`, the EC50 was 1.48 µM and the Ki is 1.33 µM.

Regarding `CCCCn1c(O)c(/C=C/C=C/C=Nc2ccccc2)sc1=S`, the EC50 was 1.12 µM and the Ki was found to be 1 µM.

On to `CNC(=O)C(=O)Nc1c(C)cc(C)cc1C`, for which the EC50 is > 30 µM (inactive).

`C#CCOCCOCCOCCNc1nc(N2CCN(C(=O)[C@H](Cc3cc4ccccc4[nH]3)n3cc([C@@H](N)C(C)CC)nn3)CC2)nc(N2CCN(C(=O)[C@H](CCCCN)n3cc([C@@H](N)CC(C)C)nn3)CC2)n1` (stereo not given in full): the EC50 was 6.9 µM.

In the case of `CCC(=C/c1sc2ccc3ccccc3c2[n+]1C)/C=C1\Sc2ccc3ccccc3c2N1C`, the EC50 was 0.14 µM and the Ki turned out to be 0.12 µM.

As for `COc1ccc(Cn2c(SCc3ccccc3C)nc3cc(OC)c(OC)cc3c2=N)cc1`, the EC50 was > 30 µM (inactive).

`CN1CCN(c2ccc(NC(=O)c3ccc(-c4ccc(Cl)cc4)o3)cc2)CC1`: the EC50 was 2.26 µM and the Ki was determined as 2.02 µM.

For `C#CCOCCOCCOCCNc1nc(N2CCN(C(=O)[C@H](CCC(=O)O)n3cc(C(N)CO)nn3)CC2)nc(N2CCN(C(=O)[C@H](Cc3cc4ccccc4[nH]3)n3cc(C(N)[C@H](C)CC)nn3)CC2)n1` (stereo not given in full), the EC50 was > 30 µM (inactive).

`Cc1cc2cc(CNC(=O)NC3CCCCC3)ccc2[nH]1`: the 50% effective concentration (EC50) was 4.13 µM and the Ki was determined as 3.69 µM.

For the compound `CN(c1ccccc1)c1ccc(/C=c2\s/c(=C(/C#N)C(=O)C(C)(C)C)n(Cc3ccco3)c2=O)cc1`, the half-maximal effective concentration (EC50) was 0.67 µM and the Ki came out at 0.6 µM.

On to `Cc1cc2ccccc2n1CCNC(=O)c1ccccc1`, for which the EC50 is 3.02 µM and the Ki came to 2.7 µM.

With `COc1ccc(-c2[nH]ncc2CN2CCCCCCC2)c(OC)c1`, the EC50 is > 30 µM (inactive).

Consider `CCCCCc1cc(=O)oc2c(C(CCN3CCCCC3)c3ccc4c(c3)OCO4)c(OC)cc(OC)c12` (stereo not given), for which the EC50 is > 30 µM (inactive).

Take `CN(C)CCCNc1cc(C(C)(C)C)nc2c(-c3ccc(Cl)cc3)cnn12`: the EC50 was 4.35 µM.

On to `CCN1CCN(Cc2ccc(NC(=O)c3cc(NC(=O)c4cnn(-c5ccccc5)c4N)cc(OC)c3)cc2C(F)(F)F)CC1`, for which the EC50 was > 30 µM (inactive).

Consider `O=C1Nc2ccc(Br)cc2/C1=N/N=C/C1=C(N2CCOCC2)C(=C\c2ccccc2)/CC1`, for which the EC50 is 1.87 µM and the Ki was 1.68 µM.

Take `CCN1CCN(Cc2ccc(NC(=O)c3cc(NC(=O)c4cncc(-c5cccs5)c4)cc(OC)c3)cc2C(F)(F)F)CC1`: the EC50 is > 30 µM (inactive).

Consider `CCOC(=O)c1c(C)n(-c2ccc(C)cc2)c2ccc(OCC(O)CN3CCN(C)CC3)cc12` (stereo not given), for which the EC50 was > 30 µM (inactive).

In the case of `C#CCOCCOCCOCCNc1nc(N2CCN(C(=O)[C@H](Cc3ccc(O)cc3)n3cc([C@@H](N)C(C)CC)nn3)CC2)nc(N2CCN(C(=O)[C@H](Cc3cc4ccccc4[nH]3)n3cc([C@@H](N)CC(C)C)nn3)CC2)n1` (stereo not given in full), the EC50 was > 30 µM (inactive).

`C=CCN1C(=O)/C(=C/c2ccc(-c3ccc(F)cc3)o2)SC1=S`: the half-maximal effective concentration (EC50) was 2.06 µM and the Ki came to 1.84 µM.

Turning to `COc1ccc(NC(=O)N(Cc2cc3cc(C)ccc3[nH]c2=O)CC2CCCO2)cc1` (stereo not given), the EC50 was > 30 µM (inactive).

Regarding `Cc1nc(N)sc1-c1csc(Nc2ncccn2)n1`, the EC50 is > 30 µM (inactive).

As for `CCCOc1ccc2c(c1)C(=NN=C(N)N)c1cc(OCCC)ccc1-2`, the EC50 was 4.59 µM.

On to `CCNc1ccc2noc3c2c1C(=O)c1ccccc1-3`, for which the EC50 is 4.95 µM and the Ki was 4.43 µM.

Regarding `C#CCOCCOCCOCCNc1nc(N2CCN(C(=O)C(Cc3ccc(O)cc3)n3cc(C(N)CC(C)C)nn3)CC2)nc(N2CCN(C(=O)C(Cc3cc4ccccc4[nH]3)n3cc(C(N)Cc4ccc(O)cc4)nn3)CC2)n1` (stereo not given), the EC50 was 6.12 µM.

For the compound `C#CCOCCOCCOCCNc1nc(N2CCN(C(=O)[C@H](CCCCN)n3cc([C@@H](N)CC(C)C)nn3)CC2)nc(N2CCN(C(=O)[C@H](Cc3cc4ccccc4[nH]3)n3cc([C@@H](N)Cc4ccc(O)cc4)nn3)CC2)n1`, the EC50 was > 30 µM (inactive).

In the case of `c1ccc(CNc2nc(NCc3ccccc3)c3ccccc3n2)cc1`, the EC50 was > 30 µM (inactive).

On to `CCn1cc(C(=O)O)c(=O)c2cc(F)c(N3CCN(C(=S)NC(=O)c4ccc(Br)cc4)CC3)cc21`, for which the EC50 is > 30 µM (inactive).

As to `O=C(NNc1c2ccccc2nc2ccccc12)c1cc2ccccc2cc1O`, the EC50 is > 30 µM (inactive).

Take `CC[n+]1c(/C=C/C=C/N(C(C)=O)c2ccccc2)sc2ccccc21`: the EC50 was > 30 µM (inactive).

On to `CCN1C(c2ccccc2)=C(c2ccccc2)S/C1=C\C=C1/SC(=S)N(C)C1=O`, for which the EC50 is 3.38 µM and the Ki is 3.02 µM.

As to `COCCNC(=O)CN(c1cc(Cl)ccc1OC)S(=O)(=O)c1ccc(C)c([N+](=O)[O-])c1`, the EC50 was > 30 µM (inactive).

Turning to `Cc1ccc(-c2c[n+](CC(=O)Nc3nc(-c4ccc(F)cc4)cs3)c3n2CCC3)cc1`, the EC50 is 9.91 µM.

Regarding `OCCCCNCc1ccc(OCc2ccc(Cl)cc2Cl)cc1`, the EC50 is > 30 µM (inactive).

For `CCCCCc1cc(=O)oc2c(C(CCN3CCCC(C)C3)c3ccc4c(c3)OCO4)c(OC)cc(OC)c12` (stereo not given), the EC50 was > 30 µM (inactive).

In the case of `CCN(CC)CCOc1ccc2c(c1)C(=NNC(=O)c1ccccn1)c1cc(OCCN(CC)CC)ccc1-2`, the EC50 was 5.71 µM.

On to `CS(=O)(=O)N1N=C(c2ccccc2)CC1c1ccc2c(c1)OCO2` (stereo not given), for which the EC50 is > 30 µM (inactive).

With `Cc1ccnc(NC(=O)C2(c3cccs3)CCOCC2)c1`, the EC50 is > 30 µM (inactive).

On to `C#CCOCCOCCOCCNc1nc(N2CCN(C(=O)C(Cc3ccc(O)cc3)n3cc(C(N)CC(C)C)nn3)CC2)nc(N2CCN(C(=O)C(Cc3cc4ccccc4[nH]3)n3cc(C(N)C(C)CC)nn3)CC2)n1` (stereo not given), for which the EC50 was > 30 µM (inactive).

Turning to `COC(=O)C1=C(C)N(Cc2ccccc2)C(=NCc2cccc(C(F)(F)F)c2)N[C@H]1c1cccc(F)c1`, the EC50 was 7.03 µM.

Consider `CNC[C@H](CC1CCCCC1)NC[C@H](Cc1ccccc1)NCCC12CC3CC(CC(C3)C1)C2`, for which the EC50 was 4.93 µM.

For `COc1ccc2nc3cc(Cl)ccc3c(Nc3cc(C(C)C)c(O)cc3C)c2c1`, the EC50 was 1.94 µM.

Turning to `CSc1cccc(NC(=S)N(CCCN2CCCC2)Cc2cccn2Cc2ccc(Cl)cc2)c1`, the half-maximal effective concentration (EC50) is 5.82 µM.

As to `Nc1ccc(N)c(C(=O)O)c1`, the EC50 was 3.78 µM and the Ki stood at 3.39 µM.

With `COc1ccc(Cn2c(SCc3ccc(C)cc3)nc3cc(OC)c(OC)cc3c2=N)cc1Cl`, the EC50 is 1.97 µM.

As for `C#CCOCCOCCOCCNc1nc(N2CCN(C(=O)[C@H](Cc3ccc(O)cc3)n3cc([C@@H](N)C(C)CC)nn3)CC2)nc(N2CCN(C(=O)[C@H](Cc3cc4ccccc4[nH]3)n3cc([C@@H](N)Cc4ccc(O)cc4)nn3)CC2)n1` (stereo not given in full), the EC50 was 12.5 µM.

As for `COc1ccccc1N(CN1C(=O)c2ccccc2C1=O)C(=O)c1cccc(C)c1`, the EC50 is > 30 µM (inactive).

In the case of `CCCCCCCCCCCCCCCC[n+]1cccc2ccccc21`, the EC50 was > 30 µM (inactive).

With `C#CCOCCOCCOCCNc1nc(N2CCN(C(=O)[C@H]([C@@H](C)CC)n3cc([C@@H](N)CC(C)C)nn3)CC2)nc(N2CCN(C(=O)[C@H](Cc3cc4ccccc4[nH]3)n3cc([C@@H](N)CC(C)C)nn3)CC2)n1`, the EC50 is 7.74 µM.
